Calls of active or inactive are those of the source.
Key:
Beta-galactosidase = Beta-galactosidase (Escherichia coli, UniProt Q8VNN2); assay: beta-galactosidase enzyme inhibitors and activators, dose response, artefact control for CCR6 antagonist project, biochemical, E. coli enzyme, set 3 (AID 504712); format: functional
cells = format: functional, cell-based
[1] = biological target: T1, Nuclear receptor subfamily 0 group B member 1 (Homo sapiens, UniProt P51843); format: functional, cell-based;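 note: HEK293T cells transfected with SF-1 and DAX-1 plus StAR promoter luciferase reporter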
T1 sequence (P51843 whole entry): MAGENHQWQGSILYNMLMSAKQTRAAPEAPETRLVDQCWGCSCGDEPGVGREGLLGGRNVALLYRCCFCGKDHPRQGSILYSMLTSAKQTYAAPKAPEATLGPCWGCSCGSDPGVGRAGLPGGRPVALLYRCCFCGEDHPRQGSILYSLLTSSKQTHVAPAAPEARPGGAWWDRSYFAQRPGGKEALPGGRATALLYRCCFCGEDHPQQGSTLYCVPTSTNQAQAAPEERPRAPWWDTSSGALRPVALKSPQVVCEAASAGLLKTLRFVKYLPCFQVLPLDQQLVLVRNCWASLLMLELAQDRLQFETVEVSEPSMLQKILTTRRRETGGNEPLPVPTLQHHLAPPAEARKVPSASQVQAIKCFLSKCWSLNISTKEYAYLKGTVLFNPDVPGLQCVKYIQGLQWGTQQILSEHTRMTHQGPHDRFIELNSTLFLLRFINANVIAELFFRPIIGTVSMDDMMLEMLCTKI

Beta-lactamase [2] = biological target: Beta-lactamase (Salmonella choleraesuis (strain SC-B67), UniProt Q5J463); assay: Epi-absorbance-based counterscreen for selective VIM-2 inhibitors: dose response biochemical high throughput screening assay to identify inhibitors of TEM-1 serine-beta-lactamase.
Chain of Beta-lactamase (Salmonella choleraesuis (strain SC-B67), UniProt Q5J463) (Q5J463 whole entry): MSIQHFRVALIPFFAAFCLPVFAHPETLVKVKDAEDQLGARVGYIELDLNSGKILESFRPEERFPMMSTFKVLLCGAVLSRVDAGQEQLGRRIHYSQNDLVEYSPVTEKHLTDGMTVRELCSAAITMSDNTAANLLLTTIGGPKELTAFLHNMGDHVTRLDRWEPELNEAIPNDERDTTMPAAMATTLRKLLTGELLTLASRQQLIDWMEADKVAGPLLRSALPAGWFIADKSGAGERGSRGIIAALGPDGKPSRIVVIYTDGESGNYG

Beta-lactamase [3] = biological target: T2, Beta-lactamase (Pseudomonas aeruginosa, UniProt Q79MP6); assay: IMP-1 metallo-beta-lactamase inhibitors, dose response, selectivity assay for VIM-2 inhibitor project, biochemical, epi-absorbance (AID 1920)
T2 sequence (Q79MP6 whole entry): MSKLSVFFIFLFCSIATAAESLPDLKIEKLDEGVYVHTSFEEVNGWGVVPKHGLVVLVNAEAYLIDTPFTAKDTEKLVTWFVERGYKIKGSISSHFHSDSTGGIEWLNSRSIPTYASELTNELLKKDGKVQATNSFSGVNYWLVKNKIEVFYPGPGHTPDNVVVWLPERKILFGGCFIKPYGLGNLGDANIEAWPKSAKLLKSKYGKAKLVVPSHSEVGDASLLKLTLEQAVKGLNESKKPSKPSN

Beta-lactamase [4] = biological target: T2, Beta-lactamase; assay: […] counterscreen for selective VIM-2 inhibitors: dose response biochemical high throughput screening assay to identify inhibitors of IMP-1 metallo-beta-lactamase.
[5] = biological target: T3, Oxysterols receptor LXR-beta (Homo sapiens, UniProt P55055); format: functional, cell-based;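 note: agonist activity at LXR measured by a cell-based luminescence readout across a dose range, run as a counterscreen for daf-12 agonists; HEK293 cells with Gal4-LXR fusion and GAL4-driven luciferase reporter; potency for activation of Gal4-LXR reporter so compounds are agonists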
T3 sequence (P55055 whole entry): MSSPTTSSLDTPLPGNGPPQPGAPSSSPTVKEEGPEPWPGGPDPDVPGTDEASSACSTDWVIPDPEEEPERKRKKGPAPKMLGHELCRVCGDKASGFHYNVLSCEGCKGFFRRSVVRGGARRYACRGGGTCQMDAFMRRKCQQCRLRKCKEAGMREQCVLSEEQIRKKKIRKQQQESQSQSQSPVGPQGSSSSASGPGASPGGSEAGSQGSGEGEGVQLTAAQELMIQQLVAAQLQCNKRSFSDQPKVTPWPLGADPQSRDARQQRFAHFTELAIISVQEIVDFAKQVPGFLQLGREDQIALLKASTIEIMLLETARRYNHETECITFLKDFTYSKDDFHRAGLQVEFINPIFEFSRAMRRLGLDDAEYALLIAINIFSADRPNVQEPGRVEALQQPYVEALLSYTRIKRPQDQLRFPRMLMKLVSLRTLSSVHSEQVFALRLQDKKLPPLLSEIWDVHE

[6] = biological target: T4, Probable nicotinate-nucleotide adenylyltransferase (Staphylococcus aureus (strain N315), UniProt P65502); format: functional, Staphylococcus aureus subsp. aureus N315;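 for IC50 Mean: confirmatory dose-response retesting of NadD inhibitor hits first found in an ultra-high-throughput screen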
T4 sequence (P65502 whole entry): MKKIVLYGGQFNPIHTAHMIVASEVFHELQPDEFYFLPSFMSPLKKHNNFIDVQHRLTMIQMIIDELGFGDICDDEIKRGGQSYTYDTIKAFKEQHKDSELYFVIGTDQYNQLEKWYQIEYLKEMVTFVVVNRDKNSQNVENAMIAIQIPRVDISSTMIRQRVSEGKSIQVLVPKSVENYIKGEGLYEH

[7] = biological target: T4, Probable nicotinate-nucleotide adenylyltransferase; format: functional, Staphylococcus aureus subsp. aureus N315; conditions: read-out: IC50_Mean
[8] = test system: Streptococcus sp. 'group A'; assay: growth inhibition of control SK(-) GAS strain, dose response, counter-screen for streptokinase expression inhibitor project, luminescence, kanamycin, BacTiterGlo, confirmation (AID 1900); format: functional, organism-based
Streptokinase A = biological target: T5, Streptokinase A (Streptococcus pyogenes serotype M1, UniProt P10520); assay: S. pyogenes streptokinase expression inhibitors, potency, dose response, plasminogen activation absorbance, OD405 (AID 1914); format: functional, Streptococcus pyogenes M1 GAS;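 note: secreted streptokinase activity via plasminogen activation per viability signal from cell pellet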
T5 sequence (P10520 whole entry): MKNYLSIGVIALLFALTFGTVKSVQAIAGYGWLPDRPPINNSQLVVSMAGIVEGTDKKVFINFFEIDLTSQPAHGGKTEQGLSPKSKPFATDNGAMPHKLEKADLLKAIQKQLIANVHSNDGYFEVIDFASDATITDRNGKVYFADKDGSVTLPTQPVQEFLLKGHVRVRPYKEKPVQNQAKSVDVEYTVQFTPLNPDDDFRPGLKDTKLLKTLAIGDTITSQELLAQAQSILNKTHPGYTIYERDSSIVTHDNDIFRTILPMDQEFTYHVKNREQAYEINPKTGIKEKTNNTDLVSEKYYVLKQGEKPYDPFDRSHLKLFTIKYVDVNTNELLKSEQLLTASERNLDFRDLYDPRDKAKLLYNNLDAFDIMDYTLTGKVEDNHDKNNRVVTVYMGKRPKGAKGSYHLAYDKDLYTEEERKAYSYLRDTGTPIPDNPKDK

Streptococcus = assay: Group A Streptococcus viability loss, dose response, counter-screen for streptokinase expression inhibitor project, luminescence, BacTiterGlo (AID 1915); format: functional, organism-based;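 note: potency for reduction of bacterial viability or growth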
[9] = biological target: T6, Ubiquitin-conjugating enzyme E2 N (Homo sapiens, UniProt P61088); format: functional;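 note: Dose-response confirmation in a TR-FRET assay detecting UBC13-driven polyubiquitin chain formation, inhibition measured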
T6 sequence (P61088 whole entry): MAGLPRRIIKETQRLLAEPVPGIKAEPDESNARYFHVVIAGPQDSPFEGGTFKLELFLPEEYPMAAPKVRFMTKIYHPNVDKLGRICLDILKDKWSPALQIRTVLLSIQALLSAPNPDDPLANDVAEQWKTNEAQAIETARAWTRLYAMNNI

[10] = biological target: T7, Fructose-bisphosphate aldolase (Mycobacterium tuberculosis, UniProt P9WQA3); assay: Fluorescence-based biochemical high throughput dose response assay for inhibitors of the fructose-bisphosphate aldolase (FBA) of M. tuberculosis.; format: functional
T7 sequence (P9WQA3 whole entry): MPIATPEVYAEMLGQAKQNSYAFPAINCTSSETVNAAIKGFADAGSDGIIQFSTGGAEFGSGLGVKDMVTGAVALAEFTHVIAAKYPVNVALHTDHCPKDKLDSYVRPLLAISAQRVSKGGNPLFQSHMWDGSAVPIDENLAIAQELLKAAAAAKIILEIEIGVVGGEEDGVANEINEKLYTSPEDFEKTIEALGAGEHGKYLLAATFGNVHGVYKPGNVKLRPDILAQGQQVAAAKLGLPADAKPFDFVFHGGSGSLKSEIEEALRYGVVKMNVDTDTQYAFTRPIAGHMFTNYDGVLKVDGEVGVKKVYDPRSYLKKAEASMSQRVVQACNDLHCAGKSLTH

[11] = inhibitors of clade B AD8 Env fusion, dose response, cell-based, cherry-pick (AID 652062); format: functional;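 note: luciferase signal from cell-cell fusion driven by HIV-1 clade B AD8 Env; potency is for inhibitors of fusion seen as a drop in luminescence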
[12] = HEK293T cytotoxicity, dose response, cytotoxicity control for miR-122 modulator project, cell-based, inhibitor set, cherry-pick, set 2 (AID 720697); format: functional
[13] = biological target: T8, Hepatocyte nuclear factor 4-alpha (Homo sapiens, UniProt P41235); format: functional, cell-based;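 note: biochemical luminescence-based dose-response counterscreen measuring inhibition of HNF4 dimerization, run alongside a screen for blockers of ABHD5–perilipin-5 interaction; split luciferase complementation of HNF4 fusion proteins in cell lysate measuring dimerization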
T8 sequence (P41235 whole entry): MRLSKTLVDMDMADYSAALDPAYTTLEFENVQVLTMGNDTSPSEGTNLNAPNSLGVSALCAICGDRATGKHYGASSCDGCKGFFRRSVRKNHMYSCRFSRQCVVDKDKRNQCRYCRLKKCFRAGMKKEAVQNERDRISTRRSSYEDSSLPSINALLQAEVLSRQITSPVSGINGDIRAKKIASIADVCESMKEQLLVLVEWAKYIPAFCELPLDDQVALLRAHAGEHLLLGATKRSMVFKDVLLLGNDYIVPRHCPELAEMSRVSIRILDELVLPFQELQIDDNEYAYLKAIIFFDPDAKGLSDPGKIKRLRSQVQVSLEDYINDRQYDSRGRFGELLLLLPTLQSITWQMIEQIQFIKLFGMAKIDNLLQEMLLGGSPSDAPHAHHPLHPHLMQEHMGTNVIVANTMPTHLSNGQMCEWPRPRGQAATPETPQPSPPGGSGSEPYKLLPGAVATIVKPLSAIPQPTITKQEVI

Chain of Beta-galactosidase (Q8VNN2 whole entry): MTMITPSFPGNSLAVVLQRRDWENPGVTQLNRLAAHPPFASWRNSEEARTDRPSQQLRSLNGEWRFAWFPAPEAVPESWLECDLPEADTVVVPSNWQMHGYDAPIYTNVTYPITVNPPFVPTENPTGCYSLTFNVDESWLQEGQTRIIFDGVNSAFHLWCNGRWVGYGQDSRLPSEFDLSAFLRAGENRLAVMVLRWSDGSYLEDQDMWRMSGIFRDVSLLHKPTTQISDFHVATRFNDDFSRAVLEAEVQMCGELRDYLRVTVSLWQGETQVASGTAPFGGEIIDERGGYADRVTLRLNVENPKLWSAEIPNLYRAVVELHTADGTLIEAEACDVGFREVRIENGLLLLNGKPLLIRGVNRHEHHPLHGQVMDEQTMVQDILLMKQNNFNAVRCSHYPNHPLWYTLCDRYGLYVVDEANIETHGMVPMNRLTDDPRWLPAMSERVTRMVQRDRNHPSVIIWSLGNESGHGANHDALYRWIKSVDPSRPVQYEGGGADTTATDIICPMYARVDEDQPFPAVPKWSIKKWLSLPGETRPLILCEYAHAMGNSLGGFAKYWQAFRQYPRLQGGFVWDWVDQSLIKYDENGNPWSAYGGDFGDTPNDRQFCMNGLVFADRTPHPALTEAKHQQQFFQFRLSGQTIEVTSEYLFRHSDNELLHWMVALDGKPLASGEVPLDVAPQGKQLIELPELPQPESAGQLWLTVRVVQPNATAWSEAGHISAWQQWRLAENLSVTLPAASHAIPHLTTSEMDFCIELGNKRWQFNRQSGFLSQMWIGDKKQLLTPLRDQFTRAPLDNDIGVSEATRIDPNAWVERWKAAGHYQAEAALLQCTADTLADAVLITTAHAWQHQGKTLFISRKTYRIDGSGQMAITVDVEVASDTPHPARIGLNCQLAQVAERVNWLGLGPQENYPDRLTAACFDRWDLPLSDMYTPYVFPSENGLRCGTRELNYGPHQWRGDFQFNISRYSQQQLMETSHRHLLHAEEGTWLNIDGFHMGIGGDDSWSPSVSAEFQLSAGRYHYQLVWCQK

Cc1ccc(NC(S)=NNC(=O)Nc2ccccc2)cc1
IC50 (Beta-galactosidase): > 66.6 µM (inactive) | IC50 (cells): > 67.6 µM (inactive) | IC50 [1]: > 67.6 µM (inactive)

CC(C)(C)CC(=O)Nc1nnc(SCC(=O)NCc2cccs2)s1
IC50 (Beta-lactamase [2]): > 59.6 µM (inactive) | IC50 (Beta-lactamase [3]): > 59.6 µM (inactive) | IC50 (Beta-lactamase [4]): > 59.6 µM (inactive)

Cc1cccc(NC(=O)c2ccc3ccccc3n2)c1C
EC50 [5]: > 67.5 µM (inactive)

C#CCN(C[C@H]1[C@H](OC(=O)Nc2cccs2)[C@H](OC(=O)Nc2cccs2)C[C@H]2C(=O)N(c3ccccc3)C(=O)[C@@H]12)S(=O)(=O)c1ccc(C)cc1
IC50 [6]: 19.9 µM (active) | IC50 [7]: 34.5 µM (active)

Cc1ccc(C(=O)NNC(=O)c2ccc3c(c2)OCCO3)cc1
IC50 (cells): > 67.5 µM (inactive) | IC50 [1]: > 67.5 µM (inactive)

CC(C)Cn1c(=O)c(C(=O)Nc2ccccc2S(N)(=O)=O)c(O)c2ccccc21
EC50 [8]: 6.34 µM (active) | EC50 (Streptokinase A): > 150 µM (not active) | EC50 (Streptococcus): 28.6 µM (active) | IC50 [9]: > 20 µM (inactive) | IC50 [6]: 8.62 µM (active) | IC50 [7]: 61.2 µM (active)

COc1ccc(NS(=O)(=O)c2ccc(NC(=S)NC(=O)/C=C/c3ccc(C)cc3)cc2)nn1
IC50 [6]: 5.17 µM (active) | IC50 [7]: 39.3 µM (active)

CCOc1ccc(-n2nc3ccc(N)cc3n2)cc1
IC50 [10]: 0.716 µM (active)

CCCN1CCN(CCCNC(=O)c2ccc3c(c2)NC(=O)c2ccccc2S3)CC1
IC50 (cells): > 67.5 µM (inactive) | IC50 [1]: > 67.5 µM (inactive)

COc1ccc2[nH]c(C(=O)O)c(CCN3C(=O)c4ccc(C(=O)O)cc4C3=O)c2c1
IC50 (Beta-lactamase [2]): > 59.6 µM (inactive) | IC50 (Beta-lactamase [3]): > 59.6 µM (inactive) | IC50 (Beta-lactamase [4]): > 59.6 µM (inactive)

CC(C)(C)c1ccc(-c2n[nH]c(=S)n2CCCN2CCOCC2)cc1
IC50 (Beta-lactamase [2]): > 59.6 µM (inactive) | IC50 (Beta-lactamase [3]): > 59.6 µM (inactive) | IC50 (Beta-lactamase [4]): > 59.6 µM (inactive)

COc1ccc(-c2cn3c(C)c(C(=O)Nc4cccc(NC(C)=O)c4)sc3n2)cc1
AC50 [11]: 17 µM (active) | AC50 [12]: 6.44 µM (active)

CCCCCNC(=O)C(c1ccc(C#N)cc1)n1c(=O)c(-c2ccco2)nc2ccccc21 (stereo unspecified)
IC50 [13]: 3.24 µM (active)

— ChEMBL document CHEMBL1201862, “PubChem BioAssay data set” (2004)
